Reference: ChEMBL document CHEMBL4673331 (J Med Chem, 2020)
Values after ≈ are worked out from the molar mass of the structure shown.

Tests used:
[1] = target: T1, Mucosa-associated lymphoid tissue lymphoma translocation protein 1 (Homo sapiens, UniProt Q9UDY8); test: Allosteric inhibition of human wild-type […] MALT1 (329 to 824 residues) protease activity using Ac-Leu-Arg-Ser-Arg Rh110-dPro as substrate preincubated for 60 mins followed by substrate addition and measured after 60 mins by fluorescence assay
T1 sequence (Q9UDY8 whole entry): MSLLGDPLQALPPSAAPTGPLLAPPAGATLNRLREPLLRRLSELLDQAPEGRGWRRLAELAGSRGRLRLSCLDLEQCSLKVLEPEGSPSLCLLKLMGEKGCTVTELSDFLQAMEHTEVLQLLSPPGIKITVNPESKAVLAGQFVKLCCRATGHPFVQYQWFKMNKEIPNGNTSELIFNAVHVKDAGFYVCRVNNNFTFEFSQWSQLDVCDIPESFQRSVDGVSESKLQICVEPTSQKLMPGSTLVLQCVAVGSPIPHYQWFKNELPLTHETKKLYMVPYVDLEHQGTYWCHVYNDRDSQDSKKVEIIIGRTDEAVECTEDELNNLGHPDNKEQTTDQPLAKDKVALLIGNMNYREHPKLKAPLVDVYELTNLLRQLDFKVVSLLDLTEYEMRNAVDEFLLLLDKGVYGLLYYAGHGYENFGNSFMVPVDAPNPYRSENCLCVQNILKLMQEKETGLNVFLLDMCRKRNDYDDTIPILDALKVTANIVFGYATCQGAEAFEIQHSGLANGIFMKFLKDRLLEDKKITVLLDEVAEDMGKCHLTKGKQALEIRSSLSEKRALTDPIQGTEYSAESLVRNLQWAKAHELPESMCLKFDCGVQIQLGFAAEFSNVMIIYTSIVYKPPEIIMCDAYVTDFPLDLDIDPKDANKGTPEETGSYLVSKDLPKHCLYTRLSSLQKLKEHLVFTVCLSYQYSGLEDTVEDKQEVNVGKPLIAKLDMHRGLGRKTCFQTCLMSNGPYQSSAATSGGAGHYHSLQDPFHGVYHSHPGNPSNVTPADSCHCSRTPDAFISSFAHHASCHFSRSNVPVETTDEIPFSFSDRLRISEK

[2] = target: T1, Mucosa-associated lymphoid tissue lymphoma translocation protein 1; test: Allosteric inhibition of MALT1 in human OCI-LY3 cells assessed as reduction in BCL10 cleavage measured after 24 hrs by ELISA; type: cell-based, OCILY3
[3] = Solubility of the compound at pH 6.8; type: physicochemical; settings: buffer
[4] = Solubility of compound at pH 6.8 assessed as extrapolated log of solubility; type: physicochemical; settings: buffer
[5] = Solubility of compound at pH 6.8; type: physicochemical; settings: buffer
[6] = Dose normalized AUC in Sprague-Dawley rat at 1.25 mg/kg, po administered as solution; type: ADME, organism-based; settings: in vivo
[7] = Tmax in Sprague-Dawley rat at 1.25 mg/kg, po administered as solution; type: ADME, organism-based; settings: in vivo
[8] = Volume of distribution at steady state in Sprague-Dawley rat at 1 mg/kg, iv administered as bolus dose; type: ADME, organism-based; settings: in vivo, read-out: Vdss
[9] = Dose normalized AUC in Sprague-Dawley rat at 3 mg/kg, po administered as MCT suspension; type: ADME, organism-based; settings: in vivo
[10] = Dose normalized Cmax in Sprague-Dawley rat at 1.25 mg/kg, po administered as solution; type: ADME, organism-based; settings: in vivo
[11] = Protein binding in rat plasma; type: ADME, cell-free; settings: read-out: PPB (converted)
[12] = Tmax in Sprague-Dawley rat at 3 mg/kg, po administered as MCT suspension; type: ADME, organism-based; settings: in vivo
[13] = Thermodynamic solubility of the compound at pH 6.8; type: physicochemical; settings: buffer, read-out: Therm_solubility
[14] = Lipophilicity, log D of the compound at pH 7.4; type: physicochemical; settings: buffer
[15] = Intrinsic clearance in rat liver microsomes; type: ADME, Microsome; settings: read-out: CLH
[16] = Oral bioavailability in Sprague-Dawley rat at 1.25 mg/kg administered as solution; type: ADME, organism-based; settings: in vivo
[17] = Dose normalized Cmax in Sprague-Dawley rat at 3 mg/kg, po administered as MCT suspension; type: ADME, organism-based; settings: in vivo
[18] = Permeability of compound by PAMPA assay; type: ADME
[19] = Terminal half-life in Sprague-Dawley rat at 1 mg/kg, iv administered as bolus dose; type: ADME, organism-based; settings: in vivo, read-out: beta t1/2 (converted)
[20] = Dose normalized AUC in Sprague-Dawley rat at 1 mg/kg, iv administered as bolus dose; type: ADME, organism-based; settings: in vivo
[21] = Oral bioavailability in Sprague-Dawley rat at 3 mg/kg administered as MCT suspension; type: ADME, organism-based; settings: in vivo
[22] = Clearance in male Sprague-Dawley rat at 1 mg/kg, iv administered as bolus dose; type: ADME, organism-based; settings: in vivo
[23] = target: Voltage-gated inwardly rectifying potassium channel KCNH2 (Homo sapiens, UniProt Q12809); test: Inhibition of human ERG
Sequence of Voltage-gated inwardly rectifying potassium channel KCNH2 (Q12809 whole entry): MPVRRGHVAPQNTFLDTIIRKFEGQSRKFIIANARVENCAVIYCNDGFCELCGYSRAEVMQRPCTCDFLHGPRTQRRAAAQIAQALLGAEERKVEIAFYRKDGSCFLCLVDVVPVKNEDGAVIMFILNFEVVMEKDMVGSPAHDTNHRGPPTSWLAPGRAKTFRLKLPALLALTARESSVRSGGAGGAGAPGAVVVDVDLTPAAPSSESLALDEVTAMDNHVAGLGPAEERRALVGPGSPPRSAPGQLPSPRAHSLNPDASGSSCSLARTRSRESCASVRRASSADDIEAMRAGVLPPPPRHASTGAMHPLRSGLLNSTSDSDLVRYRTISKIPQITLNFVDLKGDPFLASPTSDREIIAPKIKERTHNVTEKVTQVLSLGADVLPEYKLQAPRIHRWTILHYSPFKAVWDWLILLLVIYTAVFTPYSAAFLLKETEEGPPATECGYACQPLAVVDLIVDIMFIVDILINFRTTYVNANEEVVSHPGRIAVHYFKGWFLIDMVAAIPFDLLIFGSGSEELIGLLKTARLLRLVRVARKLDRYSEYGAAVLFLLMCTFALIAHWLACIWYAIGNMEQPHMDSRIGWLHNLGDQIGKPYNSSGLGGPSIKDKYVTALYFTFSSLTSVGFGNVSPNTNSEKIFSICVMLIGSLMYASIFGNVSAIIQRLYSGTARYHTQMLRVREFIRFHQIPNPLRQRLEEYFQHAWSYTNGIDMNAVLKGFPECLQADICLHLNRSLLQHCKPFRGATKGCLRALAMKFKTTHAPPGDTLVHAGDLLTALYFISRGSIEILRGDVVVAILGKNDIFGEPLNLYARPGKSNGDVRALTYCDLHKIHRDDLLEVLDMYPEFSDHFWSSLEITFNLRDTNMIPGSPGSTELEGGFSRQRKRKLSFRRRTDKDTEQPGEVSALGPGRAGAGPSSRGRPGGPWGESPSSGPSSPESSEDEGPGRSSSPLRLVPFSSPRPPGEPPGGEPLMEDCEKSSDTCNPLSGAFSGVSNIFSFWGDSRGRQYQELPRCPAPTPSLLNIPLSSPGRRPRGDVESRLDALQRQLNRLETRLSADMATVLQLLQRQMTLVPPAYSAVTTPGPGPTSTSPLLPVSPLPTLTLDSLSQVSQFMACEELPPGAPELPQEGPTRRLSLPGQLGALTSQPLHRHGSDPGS

Compound	IC50 [1] [nM]	IC50 [2] [nM]	solubility [3] [µM]	other results
COc1ccc(N(C)C(=O)NC2COc3ccc(Br)cc3C2)cc1Cl (stereo not given)	> 100000	–	–	–
COc1ccc(NC(=O)N[C@@H]2COc3ccccc3C2)cc1Cl	> 100000	–	–	–
COc1ccc(NC(=O)Nc2cnc3ccc(Br)cc3c2)cc1Cl	242	4820	< 4	–
COc1ccc(NC(=O)NC2COc3ccccc3C2)cc1Cl (racemic)	245	2300	–	–
COc1ccc(NC(=O)N[C@H]2COc3ccccc3C2)cc1Cl	135	–	–	–
COc1ccc(NC(=O)NC2CCc3ccccc3C2)cc1Cl (racemic)	> 100000	–	–	–
COc1ccc(NC(=O)NC2COc3ccc(C#N)cc3C2)cc1Cl (racemic)	150	1920	–	–
COc1ccc(CC(=O)NC2COc3ccccc3C2)cc1Cl (stereo not given)	> 100000	–	–	–
COc1ncc(NC(=O)Nc2cnc3ccc(F)cc3c2N(C)C2CCCN(C)C2)cc1Cl (stereo not given)	70	–	61 (≈ 28.9 µg/mL)	IC50 [23]: 9000 nM
COc1ccc(NC(=O)NC2CSc3ccc(F)cc3C2)cc1Cl (racemic)	145	4270	–	–
C[C@H]1COCCN1c1c(NC(=O)Nc2cnc(OC3CCN(C)CC3)c(Cl)c2)cnc2ccc(F)cc12	70	–	60 (≈ 31.7 µg/mL)	–
COc1ccc(NC(=O)N(C)C2COc3ccc(Br)cc3C2)cc1Cl (stereo not given)	> 100000	–	–	–
COc1ccc(NC(=O)CC2COc3ccccc3C2)cc1Cl (stereo not given)	1000	–	–	–

Compounds with a lower IC50 [1], results first:

IC50 [1] [nM]	IC50 [2] [nM]	solubility [3] [µM]	Compound	other results
2	80	< 4	COc1ncc(NC(=O)Nc2cnc3cc(Cl)nn3c2N2CCOCC2(C)C)cc1Cl	–
17	740	155 (≈ 77 µg/mL)	COc1ncc(NC(=O)Nc2cnc3cc(Br)nn3c2N2CCOC[C@@H]2C)cc1Cl	–
31	3540	–	COc1ncc(NC(=O)NC2COc3ccc(Br)cc3C2)cc1Cl (stereo not given)	–
8	670	27 (≈ 12.6 µg/mL)	COc1ccc(NC(=O)Nc2cnc3ccc(C#N)cc3c2N(C)C2CCOCC2)cc1Cl	log1/S [4]: 7.1; log1/S [5]: 7.1; log1/S0 [5]: 7.1
50	–	–	COc1ccc(NC(=O)NC2COc3ccc(Br)cc3C2)cc1Cl (racemic)	–
6	330	81 (≈ 37.8 µg/mL)	COc1ncc(NC(=O)Nc2cnc3cc(Cl)nn3c2N2[C@@H](C)COC[C@@H]2C)cc1Cl	–
6	120	< 4	COc1ccc(NC(=O)Nc2cnc3ccc(C#N)cc3c2N2CCOC[C@@H]2C)cc1Cl	–
29	510	< 4	COc1ccc(NC(=O)Nc2cnc3ccc(Br)cc3c2Cl)cc1Cl	–
2	190	< 4	COc1ncc(NC(=O)Nc2cnc3ccc(C#N)cc3c2N(C)C2CCOCC2)cc1Cl	–
5	37	< 4	COc1ncc(NC(=O)Nc2cnc3ccc(C#N)cc3c2N2CCOC[C@@H]2C)cc1Cl	AUC/dose [6]: 520 nM·h; Tmax [7]: 3 h; Vd [8]: 4.8 L/kg; AUC/dose [9]: 103 nM·h; Cmax/dose [10]: 71 nM; fraction unbound [11]: 0.025; Tmax [12]: 8 h; solubility thermodynamic [13]: 0.2 µg/mL (≈ 0.442 µM); logD [14]: 3.8; microsomal CLint [15]: 3.4 µL/min/mg; bioavailability [16]: 42%; Cmax/dose [17]: 11 nM; log(permeability) [18]: -4.9; half-life [19]: 2.1 h; AUC/dose [20]: 1240 nM·h; bioavailability [21]: 8%; clearance [22]: 31 mL/min/kg
6	280	8 (≈ 3.76 µg/mL)	CC1(C)COCCN1c1c(NC(=O)Nc2ccnc(C(F)(F)F)c2)cnc2cc(Cl)nn12	–
26	1960	–	O=C(Nc1ccc(-n2cncn2)c(Cl)c1)N[C@H]1COc2ccc(Br)cc2C1	–
57	1250	–	COc1ccc(NC(=O)NC2COc3ccc(F)cc3C2)cc1Cl (racemic)	–
